Article PMC6261253 (Nature, 2018)

T1: DHX36-AAA (Bos taurus, UniProt Q05B79, K192A/K193A/K194A)
T1 sequence (Q05B79 55-1010 K192A/K193A/K194A): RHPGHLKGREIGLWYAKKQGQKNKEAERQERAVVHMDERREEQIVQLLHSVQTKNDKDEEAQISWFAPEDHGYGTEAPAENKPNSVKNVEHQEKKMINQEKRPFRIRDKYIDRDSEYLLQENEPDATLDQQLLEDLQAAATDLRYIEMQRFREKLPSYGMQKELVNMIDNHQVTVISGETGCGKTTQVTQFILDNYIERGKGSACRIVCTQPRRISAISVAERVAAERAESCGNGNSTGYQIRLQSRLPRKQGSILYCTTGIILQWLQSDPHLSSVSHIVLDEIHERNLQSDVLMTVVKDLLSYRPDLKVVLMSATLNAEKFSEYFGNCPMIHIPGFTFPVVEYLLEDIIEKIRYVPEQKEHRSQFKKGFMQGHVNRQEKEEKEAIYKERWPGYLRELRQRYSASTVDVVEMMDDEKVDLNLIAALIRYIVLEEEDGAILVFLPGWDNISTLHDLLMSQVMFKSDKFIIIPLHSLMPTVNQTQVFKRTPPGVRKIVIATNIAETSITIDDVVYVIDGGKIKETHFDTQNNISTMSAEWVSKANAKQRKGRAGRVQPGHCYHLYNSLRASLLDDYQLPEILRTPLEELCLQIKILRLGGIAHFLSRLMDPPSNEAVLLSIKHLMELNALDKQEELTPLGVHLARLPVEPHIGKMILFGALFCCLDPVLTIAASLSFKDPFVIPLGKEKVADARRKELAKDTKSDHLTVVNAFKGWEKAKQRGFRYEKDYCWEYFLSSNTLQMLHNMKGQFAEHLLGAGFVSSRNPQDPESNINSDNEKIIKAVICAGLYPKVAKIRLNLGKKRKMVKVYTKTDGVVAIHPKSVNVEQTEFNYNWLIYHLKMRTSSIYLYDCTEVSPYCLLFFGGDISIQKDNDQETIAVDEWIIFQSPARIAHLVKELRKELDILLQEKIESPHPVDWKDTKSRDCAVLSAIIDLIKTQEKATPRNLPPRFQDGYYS

T2: DHX36-DSM (crystallization construct) (Bos taurus, UniProt Q05B79 55-1010, E435Y;E436Y;K437Y;K752A;D753A;K755A;del1-54;del111-159)
T2 sequence: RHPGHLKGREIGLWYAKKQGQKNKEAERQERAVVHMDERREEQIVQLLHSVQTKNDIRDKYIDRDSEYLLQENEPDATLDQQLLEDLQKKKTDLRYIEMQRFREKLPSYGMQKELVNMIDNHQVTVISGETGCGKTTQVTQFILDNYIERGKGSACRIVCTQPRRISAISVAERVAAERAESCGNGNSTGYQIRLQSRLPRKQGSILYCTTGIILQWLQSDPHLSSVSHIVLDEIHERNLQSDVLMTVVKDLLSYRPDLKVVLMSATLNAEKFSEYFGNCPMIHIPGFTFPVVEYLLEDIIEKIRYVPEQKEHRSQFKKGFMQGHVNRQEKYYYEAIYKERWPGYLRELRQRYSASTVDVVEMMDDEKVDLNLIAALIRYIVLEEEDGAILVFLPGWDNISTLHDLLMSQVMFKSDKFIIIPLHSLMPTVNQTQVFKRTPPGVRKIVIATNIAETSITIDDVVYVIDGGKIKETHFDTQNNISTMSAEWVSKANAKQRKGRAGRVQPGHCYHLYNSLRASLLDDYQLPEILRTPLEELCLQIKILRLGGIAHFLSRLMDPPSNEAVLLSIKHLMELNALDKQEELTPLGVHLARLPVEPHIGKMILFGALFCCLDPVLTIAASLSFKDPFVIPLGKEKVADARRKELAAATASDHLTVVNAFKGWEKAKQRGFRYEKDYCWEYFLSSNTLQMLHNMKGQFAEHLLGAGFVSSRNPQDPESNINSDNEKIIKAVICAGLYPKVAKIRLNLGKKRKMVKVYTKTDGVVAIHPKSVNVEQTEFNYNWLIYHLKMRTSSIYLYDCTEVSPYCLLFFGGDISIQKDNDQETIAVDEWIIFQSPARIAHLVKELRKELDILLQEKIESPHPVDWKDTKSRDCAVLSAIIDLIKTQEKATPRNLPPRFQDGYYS


Key:
DHX36-AAA = target: T1, DHX36-AAA; assay: single-molecule FRET, helicase dissociation from G-quadruplex DNA; format: biochemical; details: ATP added to DHX36-AAA bound to c-Myc G-quadruplex DNA with 3' T9 tail
[1] = target: T2, DHX36-DSM (crystallization construct); assay: X-ray crystallography

Row | Molecule | single-molecule FRET, helicase dissociation from G-quadruplex DNA (DHX36-AAA) | binding result [1]
1 | Nc1ncnc2c1ncn2[C@@H]1O[C@H](COP(=O)(O)OP(=O)(O)OP(=O)(O)O)[C@@H](O)[C@H]1O [ATP] | Addition of ATP (red arrow) while DHX36-AAA is displaying repetitive unfolding activity | 
2 | AGGGTGGGTAGGGTGGGTTTTTTT (structured_DNA) [DNAMyc] |  | binds
